Experimental data published in patent publication US9340809B2, “Microbial conversion of sugar acids and means therein” (VALTION […] TUTKIMUSKESUS, priority 2005, dated 2016).

What was measured:
[1] = target: T1, L-galactonic acid dehydratase (Trichoderma reesei, UniProt Q0QWS4); experiment: specificity test of L-galactonic acid dehydratase in yeast extract of strain H3350, formation of reducing sugars; assay type: biochemical, Hypocrea jecorina (Trichoderma reesei); settings: yeast extract of S. cerevisiae strain H3350 expressing lgd1; formation of reducing sugars followed
T1 construct: made in house; host or cells: Saccharomyces cerevisiae strain H3350 (DSM 17214), crude yeast extract
T1 sequence (Q0QWS4 1-450): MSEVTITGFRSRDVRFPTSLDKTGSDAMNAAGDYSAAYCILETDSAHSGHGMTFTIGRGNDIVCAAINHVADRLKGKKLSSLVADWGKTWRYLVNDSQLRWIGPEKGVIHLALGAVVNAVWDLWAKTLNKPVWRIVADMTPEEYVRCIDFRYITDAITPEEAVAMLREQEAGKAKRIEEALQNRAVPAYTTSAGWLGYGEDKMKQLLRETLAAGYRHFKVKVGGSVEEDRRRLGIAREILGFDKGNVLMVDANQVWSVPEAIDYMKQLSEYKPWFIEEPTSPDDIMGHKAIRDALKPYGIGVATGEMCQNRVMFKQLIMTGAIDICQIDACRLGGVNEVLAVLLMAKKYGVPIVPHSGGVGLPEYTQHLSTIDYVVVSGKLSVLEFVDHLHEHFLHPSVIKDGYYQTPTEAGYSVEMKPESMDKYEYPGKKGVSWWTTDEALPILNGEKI
Description: The resulting vector was then transformed to a strain of Saccharomyces cerevisiae. The resulting S. cerevisiae strain was then disintegrated by vortexing with glass beads and the yeast extract analyzed for L-galactonic acid dehydratase activity. To assay the L-galactonic acid dehydratase activity L-galactonic acid was mixed with the yeast extract and formation of reducing sugars followed using standard protocols. (Bernfeld, P. (1955) “Amylases, α and β,” In: Methods In Enzymology, vol. 1, Colovick S. P., Kaplan, N. O. (eds.) Academic Press NY, pp 149-158).
To test the specificity of the enzyme the yeast extract as described before was mixed with the sugar acids D-gluconic acid, D-arabonic acid, D-xylonic acid, L-gulonic acid and L-galactonic acid. We followed the formation of reducing sugars as described in the example 1.

[2] = target: T1, L-galactonic acid dehydratase; experiment: conversion of L-galactonic acid by yeast extract of strain H3350, product quantified as 2-keto-3-deoxy sugar acid in a chemical assay; assay type: biochemical, Hypocrea jecorina (Trichoderma reesei); settings: after 21 hours; protein concentration of yeast extract 0.15 g/l; initial L-galactonic acid concentration 10 mM
Procedure: L-galactonic acid was mixed with the yeast extract of strain H3350 as described in example 1. The reaction product was identified as a 2-keto-3-deoxy sugar acid in a chemical assay and quantified as described by Buchanan et al. (1999) Biochem. J., 343:563-570. The protein concentration of the yeast extract in the reaction medium was 0.15 g/l and the initial L-galactonic acid concentration 10 mM. After 21 hours 1.04 mM of L-threo-3-deoxy-hexulosonic acid was formed.

SMILES | enzyme activity with the sugar acid as substrate [1] | L-threo-3-deoxy-hexulosonic acid formed [2] [mM]
O=C(O)[C@H](O)[C@@H](O)[C@H](O)[C@H](O)CO [D-gluconic acid] | does not exhibit activity | –
O=C(O)[C@H](O)[C@@H](O)[C@H](O)CO [D-xylonic acid] | does not exhibit activity | –
O=C(O)[C@@H](O)[C@H](O)[C@H](O)CO [D-arabonic acid] | Activity was observed | –
O=C(O)[C@@H](O)[C@H](O)[C@H](O)[C@@H](O)CO [L-galactonic acid] | Activity was observed | 1.04
